± gives the expanded uncertainty stated by the source.
Test: xn = mol fraction of the nth substance listed
Conditions: Gas, Buoyancy - hydrostatic balance with magnetic suspension - one sinker

C=C(F)C(F)(F)F [2,3,3,3-tetrafluoro-1-propene] + CCC
Conditions | mass density [kg/m3]
265.46 K, 101.2 kPa, x1 = 1 | 5.404 ± 0.069
265.48 K, 207.2 kPa, x1 = 1 | 11.507 ± 0.069
265.55 K, 106.5 kPa, x1 = 0.8116 | 5.018 ± 0.062
265.56 K, 107.5 kPa, x1 = 0.583 | 4.254 ± 0.051
265.57 K, 104 kPa, x1 = 0.0906 | 2.433 ± 0.03
265.57 K, 181.7 kPa, x1 = 0.8116 | 8.775 ± 0.066
265.57 K, 198.3 kPa, x1 = 0.583 | 8.052 ± 0.056
265.57 K, 206.2 kPa, x1 = 0.0906 | 4.954 ± 0.033
265.58 K, 299.3 kPa, x1 = 0.0906 | 7.374 ± 0.037
265.59 K, 295.1 kPa, x1 = 0.583 | 12.343 ± 0.062
265.6 K, 249 kPa, x1 = 0.8116 | 12.31 ± 0.071
270.36 K, 101 kPa, x1 = 1 | 5.279 ± 0.066
270.38 K, 164.6 kPa, x1 = 1 | 8.792 ± 0.069
270.38 K, 250.3 kPa, x1 = 1 | 13.798 ± 0.07
270.4 K, 103.2 kPa, x1 = 0.2546 | 2.918 ± 0.036
270.41 K, 182.2 kPa, x1 = 0.2546 | 5.239 ± 0.039
270.42 K, 267 kPa, x1 = 0.2546 | 7.839 ± 0.042
270.44 K, 102.4 kPa, x1 = 0.0906 | 2.353 ± 0.03
270.44 K, 194.1 kPa, x1 = 0.0906 | 4.555 ± 0.033
270.44 K, 338.6 kPa, x1 = 0.0906 | 8.243 ± 0.038
270.45 K, 102.6 kPa, x1 = 0.583 | 3.972 ± 0.05
270.45 K, 215 kPa, x1 = 0.583 | 8.58 ± 0.056
270.47 K, 349 kPa, x1 = 0.583 | 14.488 ± 0.065
270.5 K, 105.1 kPa, x1 = 0.8116 | 4.852 ± 0.06
270.5 K, 182.6 kPa, x1 = 0.8116 | 8.631 ± 0.065
270.5 K, 286.6 kPa, x1 = 0.8116 | 14.015 ± 0.072
275.39 K, 106.2 kPa, x1 = 1 | 5.448 ± 0.066
275.4 K, 208.6 kPa, x1 = 1 | 11.064 ± 0.068
275.41 K, 188.7 kPa, x1 = 0.2546 | 5.334 ± 0.039
275.41 K, 306 kPa, x1 = 0.2546 | 8.898 ± 0.044
275.42 K, 303.7 kPa, x1 = 1 | 16.657 ± 0.071
275.43 K, 404.2 kPa, x1 = 0.2546 | 12.054 ± 0.052
275.45 K, 102.2 kPa, x1 = 0.583 | 3.894 ± 0.049
275.45 K, 198.4 kPa, x1 = 0.583 | 7.744 ± 0.054
275.46 K, 103.9 kPa, x1 = 0.0906 | 2.338 ± 0.029
275.46 K, 196 kPa, x1 = 0.0906 | 4.504 ± 0.031
275.46 K, 282.9 kPa, x1 = 0.0906 | 6.633 ± 0.035
275.47 K, 107.9 kPa, x1 = 0.8116 | 4.886 ± 0.059
275.47 K, 211 kPa, x1 = 0.8116 | 9.844 ± 0.065
275.47 K, 300.7 kPa, x1 = 0.583 | 12.066 ± 0.062
275.47 K, 374.9 kPa, x1 = 0.0906 | 8.996 ± 0.04
275.49 K, 325.2 kPa, x1 = 0.8116 | 15.724 ± 0.075
275.49 K, 415.1 kPa, x1 = 0.583 | 17.223 ± 0.071
280.28 K, 103.6 kPa, x1 = 1 | 5.208 ± 0.064
280.29 K, 176.6 kPa, x1 = 1 | 9.076 ± 0.066
280.29 K, 274 kPa, x1 = 1 | 14.527 ± 0.069
280.29 K, 356.2 kPa, x1 = 1 | 19.43 ± 0.072
280.31 K, 101.5 kPa, x1 = 0.2546 | 2.757 ± 0.035
280.31 K, 195.7 kPa, x1 = 0.2546 | 5.424 ± 0.038
280.31 K, 360.4 kPa, x1 = 0.2546 | 10.374 ± 0.047
280.31 K, 476.4 kPa, x1 = 0.2546 | 14.119 ± 0.054
280.32 K, 279.7 kPa, x1 = 0.2546 | 7.895 ± 0.042
280.33 K, 202 kPa, x1 = 0.583 | 7.713 ± 0.052
280.34 K, 102.8 kPa, x1 = 0.583 | 3.835 ± 0.048
280.34 K, 300.9 kPa, x1 = 0.583 | 11.781 ± 0.06
280.34 K, 401.2 kPa, x1 = 0.583 | 16.148 ± 0.069
280.35 K, 481.2 kPa, x1 = 0.583 | 19.822 ± 0.076
280.36 K, 103.6 kPa, x1 = 0.8116 | 4.599 ± 0.057
280.36 K, 106.5 kPa, x1 = 0.0906 | 2.352 ± 0.028
280.37 K, 190.7 kPa, x1 = 0.8116 | 8.666 ± 0.062
280.37 K, 207.3 kPa, x1 = 0.0906 | 4.678 ± 0.031
280.38 K, 294.7 kPa, x1 = 0.8116 | 13.792 ± 0.071
280.39 K, 315.2 kPa, x1 = 0.0906 | 7.287 ± 0.036
280.4 K, 369 kPa, x1 = 0.8116 | 17.665 ± 0.078
280.4 K, 425 kPa, x1 = 0.0906 | 10.088 ± 0.042
285.27 K, 258.8 kPa, x1 = 1 | 13.34 ± 0.067
285.28 K, 104.7 kPa, x1 = 1 | 5.162 ± 0.062
285.28 K, 164.2 kPa, x1 = 1 | 8.23 ± 0.064
285.28 K, 358.5 kPa, x1 = 1 | 19.078 ± 0.069
285.29 K, 306.8 kPa, x1 = 0.2546 | 8.517 ± 0.042
285.29 K, 414.7 kPa, x1 = 0.2546 | 11.796 ± 0.049
285.29 K, 520.3 kPa, x1 = 0.2546 | 15.183 ± 0.057
285.3 K, 104 kPa, x1 = 0.2546 | 2.771 ± 0.034
285.3 K, 204 kPa, x1 = 0.2546 | 5.541 ± 0.037
285.32 K, 104.6 kPa, x1 = 0.583 | 3.829 ± 0.047
285.32 K, 198.9 kPa, x1 = 0.583 | 7.432 ± 0.051
285.32 K, 309.1 kPa, x1 = 0.583 | 11.855 ± 0.059
285.32 K, 414.1 kPa, x1 = 0.583 | 16.308 ± 0.068
285.33 K, 524.2 kPa, x1 = 0.583 | 21.282 ± 0.078
285.35 K, 103.9 kPa, x1 = 0.0906 | 2.256 ± 0.028
285.35 K, 107.3 kPa, x1 = 0.8116 | 4.677 ± 0.056
285.35 K, 203.4 kPa, x1 = 0.8116 | 9.079 ± 0.062
285.36 K, 205.6 kPa, x1 = 0.0906 | 4.552 ± 0.03
285.37 K, 298.4 kPa, x1 = 0.0906 | 6.733 ± 0.034

Reference: the NIST ThermoML archive (doi:10.1016/j.jct.2016.12.029)
